Measured values: paper PMC8009417, “Selective killing of homologous recombination-deficient cancer cell lines by inhibitors of the RPA:RAD52 protein-protein interaction” (PLoS ONE, 2021)
Several values for one entry are separate records, joined by “and”; a condition that tells them apart may be missing. Equal entries are not always repeated.

Columns and labels:
[1] = target: RAD52 ssDNA binding domain; set-up: method as in PMID 26548611; conditions: read-out: IC50, allosteric inhibitor of the RAD52 ssDNA binding domain; cited from earlier work
[2] = tested on: BRCA2-deficient PE01 ovarian cancer cells (BRCA2-); experiment: Cell viability assay (PrestoBlue, 72 h), PE01; type: cell-based; conditions: Homo sapiens, estimated from the graphs
Protocol: BRCA2-deficient PE01 cell line (a gift from Dr. Toshiyasu Taniguchi, Tokai University, Japan) were derived from an ovarian cancer patient. BRCA2-proficient “revertant” cell line, C4-2 is one of eight clones derived from PE01 that has acquired resistance to both cisplatin and PARPi due to a secondary mutation that restored the BRCA2 function. PE01 and PE01 C4-2 were grown and maintained in DMEM high glucose (Hyclone) supplemented with 10% Fetal Bovine Serum (FBS, Invitrogen).
(§1) Cells were seeded 5 x 10^3 cells per well in 96-well plates in a 90 μL volume per well one day before treatment. Cells in 96-well plates were incubated with increasing concentrations of the compound or vehicle control (1% DMSO) for 72 hours. Each treatment plate contained nine concentrations of a compound in sextuplicate. Growth inhibition was determined using PrestoBlue reagent (Life Technologies, #A13261). Fluorescent measurements were taken using a Spectramax M5 plate reader (MDS). To assess cells’ replication in the absence of compounds as a control, six wells on each plate were treated with vehicle to be read in triplicate at the initial treatment day (T0) and at 72-hour read (T100).

[3] = tested on: HCC1937 cells corrected with wild-type BRCA1 gene (BRCA1+); experiment: Cell viability assay (PrestoBlue, 72 h), HCC1937+BRCA1; type: cell-based; conditions: Homo sapiens, estimated from the graphs
Protocol: (§2) Fig 2 BRCA1-deficient HCC1937 breast cancer cell line survival assay. BRCA1-deficient HCC1937 cells corrected with wild-type BRCA1 gene (BRCA1+; closed triangle), and with an empty vector (BRCA1-; closed circle) were examined. For each experiment (Figs 2–4), cell lines were treated with nine concentrations of (A) quinacrine, (B) mitoxantrone, and (C) doxorubicin in 96-well culture plates at 5x10^3 cell/well density. Each treatment point was made in sextuplicate. Treated cells were incubated for 72 hours at 37°C before assessing cell viability using PrestoBlue. Data were normalized to vehicle control. The experiment was repeated three times. Error bars indicate the standard deviation.
(§3) The HCC1937 cell line (a gift from Dr. Simon Powell Memorial Sloan Kettering (MSK), New York) was derived from a mammary gland primary ductal carcinoma at the early onset of a tumor. This TNBC patient carried a germline mutation in BRCA1, resulting in carboxy-terminal truncated protein and loss of the second BRCA1 allele. BRCA1-restored and empty vector cell lines were also obtained by transfection of a vector containing a full-length human BRCA1 cDNA or an empty vector, respectively. The HCC1937 cell lines were cultured as described.
as §1

[4] = tested on: UWB1.289 cells corrected with wild-type BRCA1 gene (BRCA1+); experiment: Cell viability assay (PrestoBlue, 72 h), UWB1.289+BRCA1; type: cell-based; conditions: Homo sapiens, UWB1289, estimated from the graphs
Source text: (§4) BRCA1-deficient UWB1.289 cells corrected with wild-type BRCA1 gene (BRCA1+; closed triangle) and parental BRCA1-deficient UWB1.289 (BRCA1-; closed circle). Two PARPi-resistant cell lines derived from UWB1.289, UWB1.289.SYr12 (closed diamond) and UWB1.SYr13 (X), were also examined.
(§5) UWB1.289 (a gift from Dr. Lee Zou, Harvard Medical School, Boston, MA) were derived from a serous ovarian carcinoma with a germline BRCA1 mutation and a deletion of the wild-type allele. […] Two PARP-resistant cell lines, SYr12 and SYr13, were derived from the UWB1.289. The Mammary Epithelial growth media, along with SupplementMix solution for UWB1 cell lines, were obtained from PromoCell GmbH and mixed as described.
as §1

[5] = target: T1, RPA:RAD52 protein-protein interaction (Homo sapiens, UniProt P43351); experiment: FluorIA (Fluorescence-based protein-protein Interaction Assay), GFP-RAD52 binding to plate-coated RPA; conditions: polynomial curve fitting; 15 dose concentrations 0.03–500 μM, triplicate; RAD52(1–303) positive control; read-out: EC50 in FluorIA (inhibition of RPA:RAD52 PPI)
T1 construct: made in house
T1 sequence (P43351 1-418): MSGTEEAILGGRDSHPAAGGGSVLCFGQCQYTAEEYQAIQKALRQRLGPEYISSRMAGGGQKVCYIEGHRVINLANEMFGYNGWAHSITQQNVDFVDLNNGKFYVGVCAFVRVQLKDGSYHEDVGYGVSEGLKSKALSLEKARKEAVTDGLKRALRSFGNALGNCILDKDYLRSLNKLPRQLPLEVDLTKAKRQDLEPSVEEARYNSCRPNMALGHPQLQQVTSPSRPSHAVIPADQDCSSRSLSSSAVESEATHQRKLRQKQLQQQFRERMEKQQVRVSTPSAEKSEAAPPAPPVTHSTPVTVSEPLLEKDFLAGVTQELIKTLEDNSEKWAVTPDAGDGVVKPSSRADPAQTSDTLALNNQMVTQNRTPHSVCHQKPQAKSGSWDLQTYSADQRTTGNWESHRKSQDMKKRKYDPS
Protocol: A newly developed fluorescence-based assay for detecting protein-protein interactions, FluorIA was used to identify SMIs of RPA:RAD52 PPI. The detailed FluorIA protocol is published elsewhere. Briefly, 384-well plates (Thermo Fisher Scientific, #460518) were coated with purified RPA. Then compounds or controls were added and incubated with freshly prepared GFP-RAD52. RAD52(1–303) without GFP-tag and buffer (including DMSO) only were used as controls. Then the relative fluorescence (RFU) was measured using a POLARstar OPTIMA plate reader (BMG LABTECH) on emptied plates at an excitation/emission (for eGFP) of 485/520 nm at 2500 gain setting.
Three chemical libraries the 355-member SelleckChem Kinase Inhibitor Library, the 1200-member Prestwick Chemical Library, and the 100,000-member ChemBridge library were used for the screening. The screening of the SelleckChem Kinase Inhibitor and the Prestwick libraries were performed at 10 and 100 μM each in duplicate. The screening of the ChemBridge library was conducted at 100 μM. […] The statistical criteria for a hit were fully described in Al-Mugotir et al.. Each hit was verified in triplicate at 10 and 100 μM.
The in vitro EC50 value of each hit was determined with FluorIA. The chemicals were serially diluted by two-fold increments from 0.030 to 500 μM and analyzed in triplicate with FluorIA. RAD52(1–303) was used as a positive control and buffer with DMSO was used as a negative control. Candidate SMIs with strong inhibition were purchased, and a 1D NMR analysis was carried out to verify their identities. The eleven candidates SMIs were purchased as follows: 5137134, 5246481, 52614577,5316833, 5373030, and 7623574 from Chembridge HIT2LEAD, 5989499 from Wuxi lab network, 5375405 from Aronis, quinacrine and mitoxantrone from Sigma Aldrich, and doxorubicin from LC labs. D-I03 was purchased from Molport. Their effectiveness in inhibiting the RPA:RAD52 PPI was confirmed after purchase with the FluorIA as described above (S1 Fig).
Supplementary file pone.0248941.s001.tif: S1 Fig Validation experiments of eleven hits with the FlourIA. Sixteen treatment concentrations were used (0.030–500 μM) increasing by two-fold increments of each molecule/drug obtained as a hit in HTS FluorIA. RAD52(1–303) without GFP-tag and buffer (including DMSO) only were used as controls. Percent inhibition was calculated as follows: [(RFUSMI—RFURAD52(1–303)) / (RFUDMSO—RFURAD52(1–303))]*100, where RFU is relative fluorescence unit. An average of triplicate measurements was used. The treatment points for quinacrine and doxorubicin beyond 125 μM were showing characteristics of aggregation and were not used. (TIF) Click here for additional data file.

[6] = tested on: BRCA1-deficient HCC1937 breast cancer cells (empty vector, BRCA1-); experiment: Cell viability assay (PrestoBlue, 72 h), HCC1937 with empty vector; type: cell-based; conditions: Homo sapiens, estimated from the graphs
Protocol: as §2, §3, §1

[7] = tested on: PARPi-resistant UWB1.289.SYr12 cells; experiment: Cell viability assay (PrestoBlue, 72 h), UWB1.289.SYr12; type: cell-based; conditions: Homo sapiens, estimated from the graphs
Source text: as §4, §5, §1

[8] = tested on: BRCA2-revertant PE01 C4-2 cells (BRCA2+); experiment: Cell viability assay (PrestoBlue, 72 h), PE01 C4-2; conditions: Homo sapiens, C4-2, 72 h, read-out: EC50, cell viability
[9] = tested on: BRCA1-deficient UWB1.289 ovarian cancer cells (BRCA1-); experiment: Cell viability assay (PrestoBlue, 72 h), UWB1.289; type: cell-based; conditions: Homo sapiens, UWB1289, estimated from the graphs
Source text: as §4, §5, §1

[10] = tested on: PARPi-resistant UWB1.SYr13 cells; experiment: Cell viability assay (PrestoBlue, 72 h), UWB1.SYr13; type: cell-based; conditions: Homo sapiens, estimated from the graphs
Source text: as §4, §5, §1

[11] = target: RPA, endogenous in U2OS cells (human (endogenous in U2OS)) (UniProt P15927)
Chain of RPA, endogenous in U2OS cells (human (endogenous in U2OS)) (P15927 whole entry, looked up): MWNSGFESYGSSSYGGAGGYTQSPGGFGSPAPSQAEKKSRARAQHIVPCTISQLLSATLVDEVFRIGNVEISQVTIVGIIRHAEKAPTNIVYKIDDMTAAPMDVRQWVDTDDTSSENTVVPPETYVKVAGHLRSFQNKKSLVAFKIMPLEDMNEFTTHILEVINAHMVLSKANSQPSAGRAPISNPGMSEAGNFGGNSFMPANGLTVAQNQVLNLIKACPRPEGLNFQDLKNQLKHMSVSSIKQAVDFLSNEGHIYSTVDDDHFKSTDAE

Row | Molecule | EC50 [5] | EC50 [2] | EC50 [3] | EC50 [4] | EC50 [6] | EC50 [7] | EC50 [8] | EC50 [9] | EC50 [10] | further results
1 | NC(Cc1cc(O)c(O)cc1O)C(=O)O (racemic) [6-hydroxy-DL-dopa] | – | – | – | – | – | – | – | – | – | IC50 [1]: 1.1 µM
2 | COc1cccc2c1C(=O)c1c(O)c3c(c(O)c1C2=O)C[C@@](O)(C(=O)CO)C[C@@H]3O[C@H]1C[C@H](N)[C@H](O)[C@H](C)O1 [Doxorubicin, doxorubicin] | 10.1 µM | 0.05 µM | 1.5 µM | 2.5 µM | 0.3 µM | 0.8 µM | 0.7 µM | 0.3 µM | 2.5 µM | –
3 | CCN(CC)CCCC(C)Nc1c2ccc(Cl)cc2nc2ccc(OC)cc12 (stereo not shown) [Quinacrine, quinacrine] | 97.7 µM | 3.8 µM | 4.6 µM | > 10 µM | 1.7 µM | > 10 µM | 4.5 µM | 5.4 µM | > 10 µM | –
4 | RAD52, endogenous in U2OS cells (from UniProt P43351 1-418) (natural protein) | – | – | – | – | – | – | – | – | – | inhibition of single-strand annealing (SA-GFP reporter in U2OS-SA cells, FACS) by mitoxantrone, an inhibitor of the RPA:RAD52 interaction, at 4 nM [11]: 72%

Continued, in another order:

Row | EC50 [5] | Molecule | EC50 [2] | EC50 [3] | EC50 [4] | EC50 [6] | EC50 [7] | EC50 [8] | EC50 [9] | EC50 [10] | further results
5 | 105 µM | Nc1cc(S(=O)(=O)O)cc2cc(S(=O)(=O)O)cc(O)c12 [compound 5137134] | – | – | – | – | – | – | – | – | –
6 | 66 µM and 66.2 µM | Cc1cc2nc3ccc(N(C)C)cc3nc2cc1N [compound 5316833] | – | – | – | – | – | – | – | – | –
